From patent US7329485B2, “Methods for detecting compounds that interfere with protein aggregation utilizing an in vitro fluorescence-based assay” (priority 2005, dated 2008)
“Also recorded” adds a separate entry of the source.

Experiments:
HBV capsid (C150BO) [1] = molecular target: T1, HBV capsid (C150BO) (Hepatitis B virus genotype D subtype adw, UniProt P03147, C107A/C48A/C61A); test: BODIPY-FL fluorescence quenching assay of C150BO capsid assembly, compared to size-exclusion chromatography; type: biochemical, HBV strain adyw; settings: for effect on C150BO assembly (fluorescence, size-exclusion chromatography): 3 μM C150BO, 21° C.; for effect on assembly and quenching in mock assembly reactions: mock-assembled, low salt / no NaCl, time not stated; for effect on fluorescence of mock-assembled C150BO dimer (intrinsic quenching control): early times (up to 2 h)
T1 construct: For fluorescent labeling, the mutant C150 (Zlotnick et al., 1997); made in house; host or cells: E. coli
T1 sequence (P03147 1-150, looked up, stated change not applied): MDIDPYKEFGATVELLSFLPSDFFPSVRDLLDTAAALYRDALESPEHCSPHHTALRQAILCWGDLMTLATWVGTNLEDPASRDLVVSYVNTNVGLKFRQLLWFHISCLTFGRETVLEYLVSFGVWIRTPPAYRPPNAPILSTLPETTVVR
Method: Mutagenesis: For simplicity of chemical labeling, the cysteine residues (C48, C61 and C107) in the assembly domain of HBV strain adyw core protein (amino acids 1-149 (Zlotnick et al., 1996), core protein 149) were mutated to alanine, inserting a unique cysteine residue at the C terminus (C150). Mutagenesis was performed using QuikChange Multi (Stratagene). Mutagenic primers are described in Table III (IDT DNA technologies). Mutations were confirmed by dye terminator dideoxy sequencing (DNA Sequencing Core, Oklahoma Medical Research Foundation). The resulting mutant protein is referred to herein as C150.
Protein expression, purification and dye labeling: Wild-type and mutant truncated HBV capsid protein dimers were expressed and purified from E. coli as described in Zlotnick et al., 1996 and Zlotnick et al., 2002. Protein was quantified by absorbance at 280 nm (ε=60,900 M^−1 cm^−1). DTT levels were maintained at 5 mM throughout purification and storage. Immediately before derivatization, C150 protein was removed from storage buffer by chromatography over a G25 PD10 desalting column (Amersham Biosciences) equilibrated with ice-cold 50 mM HEPES pH 7.5 without DTT. Peak fractions were reacted with BODIPY-FL maleimide (Invitrogen/Molecular Probes) on ice at a final concentration of 4 mM from a 20 mM BODIPY-FL stock in DMSO. Most complete labeling was achieved by overnight reaction, although significant labeling could be achieved by reaction for as little as 10 min. Unreacted dye was removed by separation over a G25 PD10 desalting column equilibrated in ice-cold 50 mM HEPES, pH 7.5. The degree of dye labeling was determined using absorbance at 504 nm (ε504=73,000 M^−1 cm^−1, ε280=1,300 M^−1 cm^−1). The extinction coefficient was calculated by determining the degree of labeling of BODIPY-FL-labeled C150 preps by MALDI-TOF mass spectrometry. Yield of BODIPY-FL-labeled C150 was typically on the order of 1.9 moles of dye per mole of dimer. Labeling of C150 with fluorescein maleimide was compared to BODIPY-FL; BODIPY-FL conjugates gave a much stronger assembly-dependent change in fluorescence than did fluorescein.
Fluorescence and light scattering: Assembly was monitored by fluorescence using a SPEX Fluoromax-2 fluorometer (Horiba Jobin Yvon), using a 0.3-cm path-length cuvette (Hellma) or in black 96-well COSTAR fluorescence microtiter plates (Corning) using a MicroMax adaptor. Assembly reactions were performed at 21° C. Assembly was initiated manually by mixing core protein in 50 mM HEPES, pH 7.5, with buffered NaCl (Sigma) as appropriate. Fluorescence was excited at 504 nm and emission was measured at 509 nm (1-nm band pass for each). For static measurements, all measurements were recorded in triplicate. Qualitatively similar results were obtained using excitation at 495 nm and emission at 512 nm (commonly used for fluorescein fluorescence). Measuring fluorescence of the same reactions in either a cuvette or a 96-well fluorescence microtiter plate gave identical quenching values.
Size-exclusion chromatography: Assembly reactions were examined by SEC on a Superose 6 10/30 column (Amersham Biosciences) mounted on a Shimadzu high-performance liquid chromatography system equipped with an auto injection module (Shimadzu). The column was equilibrated with 50 mM HEPES, pH 7.5, 50 mM NaCl. Recovered protein was assigned either to the void (6.5-7.0 ml), capsid (7.0-8.3 ml), dimer (15-16.5 ml) or intermediate elution (8.3-15 ml).

HBV core protein = HBV core protein (Hepatitis B virus genotype D subtype adw, UniProt P03147); parameters: concentration leading to formation of aberrant particles: unit not given here; settings: Stray et al., 2005, cited from earlier work
HBV core protein, sequence (P03147 1-149): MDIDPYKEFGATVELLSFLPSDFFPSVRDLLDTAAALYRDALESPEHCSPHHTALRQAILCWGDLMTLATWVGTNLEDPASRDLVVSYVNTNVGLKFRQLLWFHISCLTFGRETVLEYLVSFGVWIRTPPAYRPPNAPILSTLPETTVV

HBV capsid (C150BO) [2] = molecular target: T1, HBV capsid (C150BO); test: Example 2 in vitro assembly reactions with labeled capsid polypeptide C150BO, plate reader; type: biochemical; settings: % assembly at 1 hour (FIG. 7); conditions induced 25% (±5%) assembly in the absence of drugs
Method: The assays were carried out as described in Example 1, except as described herein after. Samples were read in 3 minute intervals for one hour and again at 24 hours using a Tecan filter-based plate reader with a standard fluorescein filter set.
FIG. 7 illustrates a typical experiment comparing different compounds, including some heteroaryldihydropyrimidine (HAP) derivatives. In this experiment, assembly conditions induced 25% (±5%) assembly in the absence of drugs.

| Structure (SMILES) | effect on C150BO assembly (fluorescence, size-exclusion chromatography) (HBV capsid (C150BO) [1]; 150 mM NaCl, 24 h (FIG. 6a)) | effect on assembly and quenching in mock assembly reactions (HBV capsid (C150BO) [1]) | quenching and assembly in mock-assembled controls (HBV capsid (C150BO) [1]; without NaCl, after 24 h) | effect on fluorescence of mock-assembled C150BO dimer (intrinsic quenching control) (HBV capsid (C150BO) [1]; without NaCl) | concentration leading to formation of aberrant particles (HBV core protein; >1 HAP-1 molecule per dimer) | effect on HBV core protein assembly in vitro (HBV core protein; broad range of concentrations) | effect on C150BO assembly (fluorescence, size-exclusion chromatography) (HBV capsid (C150BO) [1]; 0.5 M NaCl, 24 h (FIG. 6b)) | effect on % assembly of HBV capsid by fluorescence (HBV capsid (C150BO) [2]) |
| --- | --- | --- | --- | --- | --- | --- | --- | --- |
| COC(=O)C1=C(C)NC(c2ccccn2)=NC1c1ccc(F)cc1Cl (stereo not shown) [HAP-1] | enhanced assembly, leading to enhanced quenching; also recorded: substantially increased both the rate and the extent of C150BO assembly | able to induce slow C150BO assembly | showed both BODIPY-FL quenching and assembly by SEC | No reduction in fluorescence; also recorded: no effect on fluorescence | ≥ 10 | enhanced the rate and extent of HBV core protein assembly | – | – |
| NC(N)=O [urea] | – | affected neither assembly nor quenching | – | No reduction in fluorescence | – | – | inhibited assembly; also recorded: A decrease in assembly by SEC and an increase in fluorescence | only showed marginal assembly inhibition |
